Test results from ChEMBL document CHEMBL5107958, “Phosphoramidate Prodrugs Continue to Deliver, The Journey of Remdesivir (GS-5734) from RSV to SARS-CoV-2” (ACS Med Chem Lett, 2022).

Key:
[1] = tested on: Ebolavirus; assay: Antiviral activity against Ebola infected in human macrophages assessed as reduction in viral replication; format: functional, organism-based; conditions: Orthoebolavirus, Macrophage
[2] = tested on: Ebolavirus; assay: Potency index, ratio of EC50 of GS-441524 to EC50 of test compound for antiviral activity against Ebola infected in human macrophages assessed as reduction in viral replication; format: functional, Macrophage
[3] = tested on: Ebolavirus; assay: Antiviral activity against Ebola infected in human HeLa cells assessed as reduction in viral replication; format: functional, organism-based; conditions: Orthoebolavirus
[4] = tested on: Marburgvirus; assay: Antiviral activity against MARV Rec. Bat371-GFP infected in human Huh-7 cells assessed as reduction in viral replication incubated for 48 to 144 hrs by fluorescence based assay; format: functional, organism-based; conditions: Orthomarburgvirus
[5] = tested on: Nipah virus; assay: Antiviral activity against Nipah M1999 infected in human HeLa cells assessed as reduction in viral replication incubated for 48 to 144 hrs by reporter virus assay; format: functional, organism-based; conditions: Henipavirus nipahense
[6] = tested on: Nipah virus; assay: Antiviral activity against Nipah B2004 infected in human NCI-H358 cells assessed as reduction in viral replication incubated for 48 to 144 hrs by reporter virus assay; format: functional, organism-based; conditions: Henipavirus nipahense
[7] = tested on: Nipah virus; assay: Potency index, ratio of EC50 of GS-441524 to EC50 of test compound for antiviral activity against Nipah B2004 infected in human NCI-H358 cells assessed as reduction in viral replication incubated for 48 to 144 hrs by reporter virus assay; format: functional, Henipavirus nipahense; conditions: time 48-144 hrs
[8] = tested on: SARS-CoV-2; assay: Antiviral activity against SARS-CoV-2 infected in African green monkey Vero E6 cells assessed as reduction in viral replication; format: functional, organism-based; conditions: Severe acute respiratory syndrome coronavirus 2, Vero C1008
[9] = tested on: SARS-CoV-2; assay: Potency index, ratio of EC50 of GS-441524 to EC50 of test compound for antiviral activity against SARS-CoV-2 infected in human Caco-2 cells assessed as reduction in viral replication at MOI of 0.01 measured after 72 hrs by qRT-PCR analysis; format: functional, Severe acute respiratory syndrome coronavirus 2
[10] = tested on: Middle East respiratory syndrome-related coronavirus; assay: Antiviral activity against MERS-CoV infected in human Calu-3 2B4 cells assessed as reduction in viral replication at MOI of 0.08 infected for 1 hr followed by virus removal and subsequent addition of medium containing compound measured after 48 hrs post-infection by nLUC assay; format: functional, organism-based
[11] = Clearance in ferret at 10 mg/kg, iv; format: ADME, organism-based, Mustela putorius furo; conditions: in vivo
[12] = Half life in ferret at 10 mg/kg, iv; format: ADME, organism-based, Mustela putorius furo; conditions: in vivo
[13] = Volume of distribution at steady state in ferret at 10 mg/kg, iv; format: ADME, organism-based, Mustela putorius furo; conditions: in vivo, read-out: Vdss
[14] = Half life in Rhesus monkey at 10 mg/kg, iv; format: ADME, organism-based, Macaca mulatta; conditions: in vivo
[15] = Half life in human at 2.5 mg/kg, iv; format: ADME, organism-based; conditions: in vivo
[16] = Volume of distribution at steady state in human at 2.5 mg/kg, iv; format: ADME, organism-based; conditions: in vivo, read-out: Vdss
[17] = Prodrug conversion in human macrophages assessed as half life of triphosphate metabolite; format: ADME, cell-based; conditions: macrophage
[18] = Prodrug conversion in Normal human bronchial epithelial cells assessed as half life of triphosphate metabolite; format: ADME, cell-based; conditions: normal human bronchial epithelial cell
[19] = tested on: Nipah virus; assay: Antiviral activity against Nipah virus infected in African green monkey assessed as animal survival at 10 mg/kg, iv qd relative to control; format: functional; conditions: Henipavirus nipahense

CCC(CC)OC(=O)[C@H](C)N[P@](=O)(OC[C@H]1O[C@@](C#N)(c2ccc3c(N)ncnn23)[C@H](O)[C@@H]1O)Oc1ccccc1
EC50 [1]: 86 nM
Ratio [2]: >232
EC50 [3]: 140 nM
EC50 [4]: 14 nM
EC50 [5]: 66 nM
EC50 [6]: 32 nM
Ratio [7]: 77
EC50 [8]: 740 nM
Ratio [9]: 80
EC50 [10]: 69 nM
clearance [11]: 43.3 mL/min/kg
half-life [12]: 11 min
Vd [13]: 0.34 L/kg
half-life [14]: 23 min
half-life [15]: 60 min
Vd [16]: 1.22 L/kg
t1/2 [17]: 14 h
t1/2 [18]: 14 h
survival at 10 mg/kg [19]: 100%
